Experimental data from PMC6024615, “Effect of Biliary Drainage on the Toxicity and Toxicokinetics of Amanita exitialis in Beagles” (Toxins, 2018).
Where two headings read alike, the source gives them in different places. Marks after values point to notes of the source that are not given here.

Test: Peptide toxins in the blood / toxicokinetics in beagles with biliary drainage
Type: in vivo, beagle dogs
Design: Dose normalized AUC (0–∞) / Dose normalized Cmax: unit not given here
Details: for T1/2 / AUC (0–∞) / CL/F / Cmax / Dose normalized AUC (0–∞) / Dose normalized Cmax / MRT (0–∞) / Tmax / Vd/F: biliary drainage, plasma, mean ± SD; for T1/2: UPLC-ESI-MS/MS; for Vd/F: male, beagle, dog, read-out: Vz/F
Protocol: The study was approved by National Institute of Occupational Health and Poison Control review board for animal experiments. Twenty-four male beagles (age, 8–10 months; weight, 10 ± 1 kg) were obtained from Beijing Institute of Xieerxin Biology Resource (Beijing, China). They were randomly divided into four groups of six animals each: control, biliary drainage, and 20 and 60 mg/kg with biliary drainage groups. The biliary drainage operation was conducted in all groups barring the control group. The dogs were dressed in homemade underwear, coats, and Elizabeth circles for a week to ensure pre-experimental acclimatization (Figure S8a–c). After determining the baseline values for biochemical indicators, the dogs were fasted for 24 h but received water ad libitum. They were anesthetized by intravenous administration of pentobarbital sodium (3%, 1 mL/kg) during the surgery. A temperature of 38–39 °C was maintained with a warming mat. After skin preservation and sterilization, the abdominal cavity was opened through the central abdomen. The abdomen was explored and blunt dissection of the common bile duct was performed (Figure S8d). The common bile duct and its branches were ligated from the intestinal side. A 7.0-Fr drainage catheter (COOK, Bloomington, IN, USA) was percutaneously inserted into the gallbladder, and a medical drainage bag was connected to the drainage catheter coming out of the abdominal cavity. Each opened layer, including the peritoneum, abdominal wall muscle, and skin, was closed with suture. The operative incision was protected with sterile gauze and a bandage, and the dogs were dressed in homemade underwear, coats, and Elizabeth circles. The drainage bag was placed in the pocket of the coat (Figure S8e). After the anesthetic wore off, the dogs were placed in cages, and food and water were provided ad libitum. The operative incision was sterilized with iodophor twice a day until stitches were removed six days after surgery. The drainage bag was replaced every day. On the eighth day after surgery, the 20 and 60 mg/kg with biliary drainage groups were orally administered a lyophilized powder of Amanita exitialis in starch capsules. In control and bile drainage group, the beagle dogs were fed with empty capsules. Immediately after dosing, the animals were placed in their cages, and food and water were provided ad libitum. Dogs were sacrificed with an overdose of sodium pentobarbital at the end of the experiment. All procedures were performed according to the ethical standards of the National Institutes of Health Guide for Animal Welfare and approved by the Institutional Animal Care and Use Committee (EAWE-2017-005).
Peptide toxins in blood and urine samples were analyzed as described previously. Bile samples from Days 0–1, Days 1–2, Days 2–3, and Days 3–4 were collected and stored in medical drainage bags and the bile volume was recorded. Plasma and urine samples were stored at 2–8 °C until analysis for peptide toxins.
UPLC and MS/MS parameters were as described in our previous study. The limit of detection and limit of quantitation of each toxin in the bile were 0.03 mg/kg and 0.5 mg/kg, respectively.
Toxicokinetic parameters were described in our previous study. Measurement data are reported as mean ± standard deviation values and enumeration data are reported as percentage (%). […] SPSS 22.0 (IBM Corporation, Armonk, NY, USA, 2015) was used for statistical analysis. The criterion for statistical significance was p ≤ 0.05. Except for the biliary drainage operation, the animals and methods in our present study are in accordance with our previously published study. Thus, by directly comparing the data from this study with those from our published studies on Amanita exitialis-exposed beagles without biliary drainage, we can evaluate the impact of biliary drainage on the toxicity and toxicokinetics of Amanita exitialis in beagles.

[1] = 20 mg/kg Amanita exitialis oral
[2] = 60 mg/kg Amanita exitialis oral

With `CC[C@H](C)[C@@H]1NC(=O)CNC(=O)[C@@H]2Cc3c([nH]c4cc(O)ccc34)[S@+]([O-])C[C@H](NC(=O)CNC1=O)C(=O)N[C@@H](CC(=O)O)C(=O)N1C[C@H](O)C[C@H]1C(=O)N[C@@H]([C@@H](C)[C@@H](O)CO)C(=O)N2` [β-amanitin] the “detection rate of peptide toxins in blood” value (“detection rate” for short) (0 h after ingestion, 20 mg/kg with biliary drainage group) was 0%, the “detection rate” value (0 h after ingestion, 60 mg/kg with biliary drainage group) was 0% and the T1/2 [1] was 1.29 ± 1.07 h. The “AUC (0–∞)” value [1] was 3.24 ± 1.49 µg·h/L, the CL/F [1] was 10.7 ± 7 mL/min/kg and the Cmax [1] was 0.85 ± 0.33 µg/L. The “Dose normalized AUC (0–∞)” value [1] was 179 ± 82.4, the “Dose normalized Cmax” value [1] was 57 ± 18.3 and the “MRT (0–∞)” value [1] was 3.83 ± 1.02 h. For the same compound, the Tmax [1] was 1.63 ± 0.48 h, the T1/2 [2] was 1.54 ± 0.71 h and the “AUC (0–∞)” value [2] was 15.75 ± 4.27 ^a,b µg/L × h. For the same compound, the CL/F [2] was 5.5 ± 1.5 mL/min/kg, the Cmax [2] was 5.18 ± 1.32 ^a,b µg/L and the “Dose normalized AUC (0–∞)” value [2] was 222.3 ± 79.2. For the same compound, the “Dose normalized Cmax” value [2] was 96 ± 24.4, the “MRT (0–∞)” value [2] was 3.89 ± 0.46 h and the Tmax [2] was 1.25 ± 0.29 h. The “detection rate” value (0.25 h after ingestion, 20 mg/kg with biliary drainage group) was 0%, the “detection rate” value (0.25 h after ingestion, 60 mg/kg with biliary drainage group) was 50% and the “detection rate” value (0.5 h after ingestion, 20 mg/kg with biliary drainage group) was 33%. The “detection rate” value (0.5 h after ingestion, 60 mg/kg with biliary drainage group) was 66%, the “detection rate” value (1 h after ingestion, 20 mg/kg with biliary drainage group) was 100% and the “detection rate” value (1 h after ingestion, 60 mg/kg with biliary drainage group) was 100%. For the same compound, the “detection rate” value (1.5 h after ingestion, 20 mg/kg with biliary drainage group) was 100%, the “detection rate” value (1.5 h after ingestion, 60 mg/kg with biliary drainage group) was 100% and the “detection rate” value (2 h after ingestion, 20 mg/kg with biliary drainage group) was 100%. The “detection rate” value (2 h after ingestion, 60 mg/kg with biliary drainage group) was 100%, the “detection rate” value (3 h after ingestion, 20 mg/kg with biliary drainage group) was 100% and the “detection rate” value (3 h after ingestion, 60 mg/kg with biliary drainage group) was 100%. For the same compound, the “detection rate” value (4 h after ingestion, 20 mg/kg with biliary drainage group) was 100%, the “detection rate” value (4 h after ingestion, 60 mg/kg with biliary drainage group) was 100% and the “detection rate” value (5 h after ingestion, 20 mg/kg with biliary drainage group) was 100%. The “detection rate” value (5 h after ingestion, 60 mg/kg with biliary drainage group) was 100%, the “detection rate” value (6 h after ingestion, 20 mg/kg with biliary drainage group) was 83% and the “detection rate” value (6 h after ingestion, 60 mg/kg with biliary drainage group) was 100%. The “detection rate” value (8 h after ingestion, 20 mg/kg with biliary drainage group) was 83%, the “detection rate” value (8 h after ingestion, 60 mg/kg with biliary drainage group) was 100% and the “detection rate” value (10 h after ingestion, 20 mg/kg with biliary drainage group) was 66%. The “detection rate” value (10 h after ingestion, 60 mg/kg with biliary drainage group) was 100%, the “detection rate” value (12 h after ingestion, 20 mg/kg with biliary drainage group) was 33% and the “detection rate” value (12 h after ingestion, 60 mg/kg with biliary drainage group) was 100%. For the same compound, the “detection rate” value (24 h after ingestion, 20 mg/kg with biliary drainage group) was 0%, the “detection rate” value (24 h after ingestion, 60 mg/kg with biliary drainage group) was 33% and the “detection rate” value (36 h after ingestion, 20 mg/kg with biliary drainage group) was 0%. For the same compound, the “detection rate” value (36 h after ingestion, 60 mg/kg with biliary drainage group) was 0%, the “detection rate” value (48 h after ingestion, 20 mg/kg with biliary drainage group) was 0% and the “detection rate” value (48 h after ingestion, 60 mg/kg with biliary drainage group) was 0%. The “time at which toxins were detected in plasma after ingestion” value (beagles with biliary drainage, oral Amanita exitialis) was 30 min, the Vd/F [1] was 0.78 ± 0.63 L/kg and the Vd/F [2] was 1.38 ± 0.59 L/kg.
